Common to all, as to assay: SILAC LC-MS ATP acyl phosphate probe competition, native kinases in HEK293T
Type in all cases: binding

Assay [1] addresses T1, KS6B1 (Ribosomal protein S6 kinase 1, p70 S6 kinase alpha) (Homo sapiens, UniProt P23443).
T1 construct: measured against >50 native kinases quantified in HEK293T soluble proteomes; endogenous in cells; host or cells: HEK293T soluble proteome
To be noted: site Lys2; ATP 1 mM; Ketanserin, Ritanserin 100 μM; RF001 1 mM. In short, it runs like this: (§1)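 First, HEK293T proteomes at 2 mg/ml in kinase buffer were exposed to compound (heavy) or DMSO (light) for 30 min at 25° C. Next, samples were pooled 1:1 and trypsin/Lys-C digested. Finally, desthiobiotin peptides were enriched on avidin and measured by data-dependent LC-MS/MS.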

Assay [2] deals with T2, KCC2G (Calcium/calmodulin-dependent protein kinase type II gamma chain) (Homo sapiens, UniProt Q13555).
T2 construct: measured against >50 native kinases quantified in HEK293T soluble proteomes; endogenous in cells; host or cells: HEK293T soluble proteome
The conditions noted are these: site Lys1; ATP 1 mM; Ketanserin, Ritanserin 100 μM; RF001 1 mM. In short, it runs like this: as §1

Assay [3] addresses T3, BRAF (B-Raf proto-oncogene serine/threonine-protein kinase) (Homo sapiens, UniProt P15056).
T3 construct: measured against >50 native kinases quantified in HEK293T soluble proteomes; endogenous in cells; host or cells: HEK293T soluble proteome
To be noted: site Lys2; ATP 1 mM; Ketanserin, Ritanserin 100 μM; RF001 1 mM. In outline:
as §1

The target in assay [4] is T4, PAN3 (PAB-dependent poly(A)-specific ribonuclease subunit) (Homo sapiens, UniProt Q58A45).
T4 construct: Native kinases; endogenous in cells; host or cells: HEK293T soluble proteome
T4 sequence (Q58A45 1-887): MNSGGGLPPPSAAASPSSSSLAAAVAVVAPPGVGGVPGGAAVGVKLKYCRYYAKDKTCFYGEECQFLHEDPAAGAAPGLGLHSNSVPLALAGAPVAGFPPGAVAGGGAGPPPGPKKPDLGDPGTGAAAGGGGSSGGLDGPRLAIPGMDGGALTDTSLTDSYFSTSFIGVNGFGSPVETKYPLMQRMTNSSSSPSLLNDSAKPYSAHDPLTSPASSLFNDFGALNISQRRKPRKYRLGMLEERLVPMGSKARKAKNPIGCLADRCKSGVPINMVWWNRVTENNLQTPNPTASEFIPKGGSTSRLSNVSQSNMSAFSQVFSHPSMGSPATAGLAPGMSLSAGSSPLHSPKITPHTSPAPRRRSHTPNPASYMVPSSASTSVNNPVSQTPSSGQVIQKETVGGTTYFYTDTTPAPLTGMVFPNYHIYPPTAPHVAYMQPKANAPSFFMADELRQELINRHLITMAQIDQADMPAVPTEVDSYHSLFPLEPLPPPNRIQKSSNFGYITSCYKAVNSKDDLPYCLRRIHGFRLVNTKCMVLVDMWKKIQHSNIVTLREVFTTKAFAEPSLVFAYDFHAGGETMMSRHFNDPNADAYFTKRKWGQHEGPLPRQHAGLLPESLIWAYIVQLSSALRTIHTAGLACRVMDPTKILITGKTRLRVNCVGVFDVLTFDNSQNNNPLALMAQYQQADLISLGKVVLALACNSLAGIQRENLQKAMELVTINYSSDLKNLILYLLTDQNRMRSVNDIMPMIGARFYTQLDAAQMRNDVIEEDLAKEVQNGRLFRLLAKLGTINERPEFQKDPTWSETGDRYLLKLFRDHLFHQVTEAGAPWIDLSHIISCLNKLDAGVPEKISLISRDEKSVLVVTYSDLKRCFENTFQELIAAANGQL
To be noted: site ATP; ATP 1 mM; Ketanserin, Ritanserin 100 μM; RF001 1 mM. In short, it runs like this: as §1

Each structure is given as a SMILES string.

T3 sequence (P15056 whole entry): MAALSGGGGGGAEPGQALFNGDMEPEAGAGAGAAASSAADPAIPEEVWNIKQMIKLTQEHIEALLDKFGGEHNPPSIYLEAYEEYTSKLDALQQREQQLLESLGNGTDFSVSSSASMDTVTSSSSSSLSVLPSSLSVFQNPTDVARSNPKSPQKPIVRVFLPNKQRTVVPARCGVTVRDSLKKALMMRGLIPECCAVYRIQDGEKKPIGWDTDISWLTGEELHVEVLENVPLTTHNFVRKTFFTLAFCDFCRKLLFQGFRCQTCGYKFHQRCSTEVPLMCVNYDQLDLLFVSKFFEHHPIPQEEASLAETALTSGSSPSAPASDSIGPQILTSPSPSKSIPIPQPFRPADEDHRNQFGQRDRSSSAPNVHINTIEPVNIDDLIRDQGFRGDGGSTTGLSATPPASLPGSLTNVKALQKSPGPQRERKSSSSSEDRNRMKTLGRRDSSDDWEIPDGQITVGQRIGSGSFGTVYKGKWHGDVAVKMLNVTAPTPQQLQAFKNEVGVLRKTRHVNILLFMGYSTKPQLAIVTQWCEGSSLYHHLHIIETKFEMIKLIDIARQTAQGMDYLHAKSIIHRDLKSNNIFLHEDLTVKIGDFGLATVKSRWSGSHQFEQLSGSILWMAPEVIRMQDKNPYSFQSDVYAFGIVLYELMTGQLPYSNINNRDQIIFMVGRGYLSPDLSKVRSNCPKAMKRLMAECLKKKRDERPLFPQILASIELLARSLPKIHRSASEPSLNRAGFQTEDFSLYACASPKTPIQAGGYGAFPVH
T1 sequence (P23443 whole entry): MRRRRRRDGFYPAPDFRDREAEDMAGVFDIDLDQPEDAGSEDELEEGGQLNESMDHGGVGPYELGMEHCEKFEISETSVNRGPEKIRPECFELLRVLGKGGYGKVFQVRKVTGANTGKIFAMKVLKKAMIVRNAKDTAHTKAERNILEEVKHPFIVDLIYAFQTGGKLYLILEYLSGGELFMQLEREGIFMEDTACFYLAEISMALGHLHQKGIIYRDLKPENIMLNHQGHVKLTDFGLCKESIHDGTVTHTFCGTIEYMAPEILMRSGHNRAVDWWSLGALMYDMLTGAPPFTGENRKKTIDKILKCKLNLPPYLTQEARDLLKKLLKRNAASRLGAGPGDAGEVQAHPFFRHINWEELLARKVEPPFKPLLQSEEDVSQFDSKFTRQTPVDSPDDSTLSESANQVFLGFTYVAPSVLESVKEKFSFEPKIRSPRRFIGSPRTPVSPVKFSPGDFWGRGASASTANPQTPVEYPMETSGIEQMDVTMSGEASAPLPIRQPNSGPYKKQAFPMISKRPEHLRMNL
T2 sequence (Q13555 whole entry): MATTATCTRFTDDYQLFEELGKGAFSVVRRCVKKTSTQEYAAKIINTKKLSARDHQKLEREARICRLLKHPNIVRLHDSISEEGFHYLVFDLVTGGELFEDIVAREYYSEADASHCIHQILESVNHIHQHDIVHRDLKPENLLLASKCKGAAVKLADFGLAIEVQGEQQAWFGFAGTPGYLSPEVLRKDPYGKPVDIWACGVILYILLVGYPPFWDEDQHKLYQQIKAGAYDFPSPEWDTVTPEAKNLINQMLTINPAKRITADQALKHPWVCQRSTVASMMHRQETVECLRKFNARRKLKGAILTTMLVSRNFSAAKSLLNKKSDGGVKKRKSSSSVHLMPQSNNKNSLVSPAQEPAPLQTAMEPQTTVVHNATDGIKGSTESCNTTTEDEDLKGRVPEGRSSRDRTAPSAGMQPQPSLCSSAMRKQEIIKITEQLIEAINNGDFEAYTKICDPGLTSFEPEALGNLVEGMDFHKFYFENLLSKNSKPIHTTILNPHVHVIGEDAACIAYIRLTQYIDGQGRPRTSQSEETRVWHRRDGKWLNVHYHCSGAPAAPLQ

For the compound `O=C(c1ccc(F)cc1)C1CCN(CCn2c(=O)[nH]c3ccccc3c2=O)CC1` [Ketanserin], the “SILAC ratio, KS6B1 probe-modified peptide” value in assay [1] is on record as 1.2. The “SILAC ratio, KCC2G probe-modified peptide” value in assay [2] worked out at 1.5. In addition, the “SILAC ratio, BRAF probe-modified peptide” value in assay [3] is 1.6. The “SILAC ratio, PAN3 probe-modified peptide” value in assay [4] was determined as 1.3.
On the same counts, the results for `Fc1ccc(C(=C2CCNCC2)c2ccc(F)cc2)cc1` [RF001, 4-(Bis(4-fluorophenyl)methylene) piperidine] are 1.0, 1.6, 1.1 and 1.3.
On to `Cc1nc2sccn2c(=O)c1CCN1CCC(=C(c2ccc(F)cc2)c2ccc(F)cc2)CC1` [Ritanserin], for which the “SILAC ratio, KS6B1 probe-modified peptide” value in assay [1] is given as 1.3. In assay [2], the “SILAC ratio, KCC2G probe-modified peptide” value was found to be 2.7. For the same compound, the “SILAC ratio, BRAF probe-modified peptide” value in assay [3] is on record as 1.8. In addition, in assay [4], the “SILAC ratio, PAN3 probe-modified peptide” value is listed as 1.8.

For the origin of these results see patent US12643867B2, “Compositions and uses thereof” (University of Virginia Patent Foundation, priority 2017, dated 2026).
